Experimental data as given in US20250381179A1, “CHROMAN-BASED COMPOUNDS FOR TREATING CANCER” (priority 2024, published 2025).

Assay: Phase 1 study: safety and tolerability (TEAEs, NCI CTCAE v5.0)
Description: The study employed an open-label, 3+3 design, with the option of adding backfill patients to each cohort cleared and deemed safe. […] Tumor responses were assessed every 2 cycles using RECIST v1.1 criteria. […] The study also involves an ongoing dose escalation study where participants receive 100 mg, 200 mg, 300 mg, 400 mg, and 600 mg once daily (QD) dose levels.
Safety was assessed through the analysis of the reported incidence of treatment-emergent AEs. Treatment-emergent AEs are those with an onset on or after the initiation of therapy and will be graded according to NCI CTCAE Version 5.0. Other safety endpoints, including laboratory results, vital signs, and ECG findings, were summarized for all patients in the Safety set.

## O=C1CC[C@H](N2Cc3cc(N4CCN(CC5CCN(c6ccc([C@@H]7c8ccc(O)cc8OC[C@@H]7c7ccccc7)cc6F)CC5)CC4)ccc3C2=O)C(=O)N1 [compound (1-g), (S)-3-(5-(4-((1-(2-fluoro-4-((3S,4R)-7-hydroxy-3-phenylchroman-4-yl)phenyl)piperidin-4-yl)methyl)piperazin-1-yl)-1-oxoisoindolin-2-yl)piperidine-2,6-dione]
200 mg QD (N = 12)
  TEAE: Urinary Tract Infection: 1 (8.3) n (%)
  TEAE: Vaginal Haemorrhage: 0 n (%)
  TEAE: Vomiting: 1 (8.3) n (%)
  related TEAE: Alopecia: 0 n (%)
  related TEAE: Arthralgia: 1 (8.3) n (%)
  related TEAE: Constipation: 0 n (%)
  related TEAE: Diarrhea: 0 n (%)
  related TEAE: Dysgeusia: 0 n (%)
  related TEAE: Eructation: 0 n (%)
  related TEAE: Fatigue: 1 (8.3) n (%)
  related TEAE: Flatulence: 0 n (%)
  related TEAE: Hot Flush: 1 (8.3) n (%)
  related TEAE: Hyperhidrosis: 0 n (%)
  related TEAE: Nail Disorder: 0 n (%)
  related TEAE: Nausea: 0 n (%)
  related TEAE: Neutrophil Count Decreased: 0 n (%)
  related TEAE: Platelet Count Decreased: 0 n (%)
  related TEAE: Tremor: 0 n (%)
  related TEAE: Vomiting: 0 n (%)
300 mg QD (N = 11)
  Patients with Any Compound (1-g) related TEAE: 5 (45.5) n (%)
  Patients with Any TEAE: 8 (72.7) n (%)
  TEAE: Abdominal Distension: 1 (9.1) n (%)
  TEAE: Abdominal Pain: 0 n (%)
  TEAE: Acute Kidney Injury: 1 (9.1) n (%)
  TEAE: Adrenal Insufficiency: 0 n (%)
  TEAE: Alopecia: 0 n (%)
  TEAE: Anaemia: 1 (9.1) n (%)
  TEAE: Anxiety: 1 (9.1) n (%)
  TEAE: Arthralgia: 0 n (%)
  TEAE: Axillary Vein Thrombosis: 0 n (%)
  TEAE: Back Pain: 1 (9.1) n (%)
  TEAE: Basal Cell Carcinoma: 0 n (%)
  TEAE: Breast Pain: 0 n (%)
  TEAE: Confusional State: 0 n (%)
  TEAE: Constipation: 1 (9.1) n (%)
  TEAE: Cough: 0 n (%)
  TEAE: Covid-19 Pneumonia: 0 n (%)
  TEAE: Dehydration: 1 (9.1) n (%)
  TEAE: Diarrhoea: 1 (9.1) n (%)
  TEAE: Dizziness: 1 (9.1) n (%)
  TEAE: Dysgeusia: 0 n (%)
  TEAE: Dyspepsia: 0 n (%)
  TEAE: Dyspnoea: 1 (9.1) n (%)
  TEAE: Dysuria: 1 (9.1) n (%)
  TEAE: Eructation: 0 n (%)
  TEAE: Fall: 0 n (%)
  TEAE: Fatigue: 1 (9.1) n (%)
  TEAE: Flatulence: 1 (9.1) n (%)
  TEAE: Fracture: 0 n (%)
  TEAE: Fungal Infection: 1 (9.1) n (%)
  TEAE: Haematoma: 1 (9.1) n (%)
  TEAE: Hot Flush: 2 (18.2) n (%)
  TEAE: Hyperglycaemia: 0 n (%)
  TEAE: Hyperhidrosis: 0 n (%)
  TEAE: Hypokalaemia: 1 (9.1) n (%)
  TEAE: Hypotension: 0 n (%)
  TEAE: Influenza Like Illness: 0 n (%)
  TEAE: Insomnia: 0 n (%)
  TEAE: Lower Respiratory Tract Congestion: 0 n (%)
  TEAE: Lymphocyte Count Decreased: 0 n (%)
  TEAE: Muscle Spasm: 0 n (%)
  TEAE: Muscular Weakness: 0 n (%)
  TEAE: Musculoskeletal Stiffness: 0 n (%)
  TEAE: Nail Disorder: 0 n (%)
  TEAE: Nasal Congestion: 0 n (%)
  TEAE: Nausea: 4 (36.4) n (%)
  TEAE: Neutrophil Count Decreased: 1 (9.1) n (%)
  TEAE: Oedema Peripheral: 1 (9.1) n (%)
  TEAE: Ophthalmic Migraine: 0 n (%)
  TEAE: Oral Pain: 1 (9.1) n (%)
  TEAE: Pain In Extremity: 0 n (%)
  TEAE: Pharyngitis: 0 n (%)
  TEAE: Platelet Count Decreased: 1 (9.1) n (%)
  TEAE: Pleural Effusion: 1 (9.1) n (%)
  TEAE: Pneumonia: 0 n (%)
  TEAE: Productive Cough: 0 n (%)
  TEAE: Rash Maculo-Papular: 0 n (%)
  TEAE: Rhinitis Allergic: 1 (9.1) n (%)
  TEAE: Rib Fracture: 0 n (%)
  TEAE: Seizure: 0 n (%)
  TEAE: Sepsis: 0 n (%)
  TEAE: Tremor: 1 (9.1) n (%)
  TEAE: Upper Respiratory Tract Infection: 1 (9.1) n (%)
  TEAE: Urinary Tract Infection: 1 (9.1) n (%)
  TEAE: Vaginal Haemorrhage: 1 (9.1) n (%)
  TEAE: Vomiting: 1 (9.1) n (%)
  related TEAE: Alopecia: 0 n (%)
  related TEAE: Arthralgia: 0 n (%)
  related TEAE: Constipation: 1 (9.1) n (%)
  related TEAE: Diarrhea: 1 (9.1) n (%)
  related TEAE: Dysgeusia: 0 n (%)
  related TEAE: Eructation: 0 n (%)
  related TEAE: Fatigue: 1 (9.1) n (%)
  related TEAE: Flatulence: 0 n (%)
  related TEAE: Hot Flush: 2 (18.2) n (%)
  related TEAE: Hyperhidrosis: 0 n (%)
  related TEAE: Nail Disorder: 0 n (%)
  related TEAE: Nausea: 3 (27.3) n (%)
  related TEAE: Neutrophil Count Decreased: 0 n (%)
  related TEAE: Platelet Count Decreased: 0 n (%)
  related TEAE: Tremor: 0 n (%)
  related TEAE: Vomiting: 1 (9.1) n (%)
400 mg QD (N = 6)
  Patients with Any Compound (1-g) related TEAE: 3 (50.0) n (%)
  Patients with Any TEAE: 4 (66.7) n (%)
  TEAE: Abdominal Distension: 0 n (%)
  TEAE: Abdominal Pain: 0 n (%)
  TEAE: Acute Kidney Injury: 0 n (%)
  TEAE: Adrenal Insufficiency: 0 n (%)
  TEAE: Alopecia: 1 (16.7) n (%)
  TEAE: Anaemia: 0 n (%)
  TEAE: Anxiety: 0 n (%)
  TEAE: Arthralgia: 0 n (%)
  TEAE: Axillary Vein Thrombosis: 0 n (%)
  TEAE: Back Pain: 0 n (%)
  TEAE: Basal Cell Carcinoma: 0 n (%)
  TEAE: Breast Pain: 0 n (%)
  TEAE: Confusional State: 0 n (%)
  TEAE: Constipation: 1 (16.7) n (%)
  TEAE: Cough: 0 n (%)
  TEAE: Covid-19 Pneumonia: 0 n (%)
  TEAE: Dehydration: 0 n (%)
  TEAE: Diarrhoea: 1 (16.7) n (%)
  TEAE: Dizziness: 0 n (%)
  TEAE: Dysgeusia: 1 (16.7) n (%)
  TEAE: Dyspepsia: 0 n (%)
  TEAE: Dyspnoea: 1 (16.7) n (%)
  TEAE: Dysuria: 0 n (%)
  TEAE: Eructation: 1 (16.7) n (%)
  TEAE: Fall: 0 n (%)
  TEAE: Fatigue: 2 (33.3) n (%)
  TEAE: Flatulence: 1 (16.7) n (%)
  TEAE: Fracture: 0 n (%)
  TEAE: Fungal Infection: 0 n (%)
  TEAE: Haematoma: 0 n (%)
  TEAE: Hot Flush: 0 n (%)
  TEAE: Hyperglycaemia: 0 n (%)
  TEAE: Hyperhidrosis: 0 n (%)
  TEAE: Hypokalaemia: 0 n (%)
  TEAE: Hypotension: 1 (16.7) n (%)
  TEAE: Influenza Like Illness: 0 n (%)
  TEAE: Insomnia: 1 (16.7) n (%)
  TEAE: Lower Respiratory Tract Congestion: 0 n (%)
  TEAE: Lymphocyte Count Decreased: 0 n (%)
  TEAE: Muscle Spasm: 1 (16.7) n (%)
  TEAE: Muscular Weakness: 1 (16.7) n (%)
  TEAE: Musculoskeletal Stiffness: 0 n (%)
  TEAE: Nail Disorder: 1 (16.7) n (%)
  TEAE: Nasal Congestion: 0 n (%)
